The values that follow come from patent US5118705A, “Water soluble salts of purpuromycin and pharmaceutical formulations thereof” (Gruppo Lepetit S.p.A., priority 1990, dated 1992).

≈ marks a conversion by molar mass, not a printed value. Structures can show the parent of a compound that is named as a salt. Where two headings read alike, the source gives them in different places. A value given as a limit tells only on which side of the number the result lay.

Series [1] has as its system Trichomonas vaginalis strain TVL. The series is described as follows: Activity against Trichomonas vaginalis, two-fold tube dilution method. Format: cell-based. On the procedure:
Trichomonas vaginalis (applicant's internal code TVL) was grown on Trichomonas Culture Medium Base (Merck) plus 10% heat treated horse serum. Inoculum: approximately 10^5 organisms/ml. Incubation: 48 hours at 37° C.

Series [2] relates to Gardnerella vaginalis ATCC 14018 and other 11 clinical isolates. Briefly: Activity against Gardnerella vaginalis, standard two fold dilution methods. The following applies: for Number of strains with MIC of 8 mcg/ml: MIC 8 mcg/ml; for Number of strains with MIC of 32 mcg/ml: MIC 32 mcg/ml.
Experimental: The strains were grown on Casman medium (Difco) plus 5% (v/v) whole rabbit blood and 0.15 (v/v) lysed rabbit blood. Inoculum size: approximately 10^4 colony forming units per spot. Incubation in an anaerobic hood: 48 hours at 37° C.
The test system of series [3] is Enterococcus faecalis ATCC 7080. Briefly: In vitro activity, M.I.C., microbroth dilution. Format: cell-based. The settings on record: salts calculated as weight of purpuromycin; 37° C., 20 h. On the procedure: (§1) MIC were determined by the microbroth dilution test. Bacteria were grown at 37° C., fungi at 30° C. Incubation was for 20 h, except for Propionibacterium acnes, Bacteroides fragilis, Neisseria gonorrhoeae, Haemophilus influenzae (48 h) and Trichophyton mentagrophytes (72h) Neisseria gonorrhoeae and Haemophilus influenzae were incubated in a CO2 -enriched (5%) atmosphere; Propionibacterium acnes and Bacteroides fragilis in an anaerobic hood. Media used were: Oxoid Iso-sensitest broth (Staphylococci, Enterococcus faecalis and Escherichia coli); Difco Todd-Hewitt broth (streptococci); Difco GC base broth with 1% BBL IsoVitaleX (Neisseria gonorrhoeae); Difco Brain-Heart Infusion broth with 1% Difco supplement C (Haemophilus influenzae); Difco Wilkins-Chalgren broth (Propionibacterium acnes and Bacteroides fragilis); Difco Yeast Nitrogen Base broth with 1.5 g/1 asparagine (Candida albicans); Difco Sabouraud-dextrose broth (Trichophyton mentagrophytes). Inocula were approximately 10^4 CFU/ml.

In series [4] the test system is Candida albicans SKF 2270. The series is described as follows: In vitro activity, M.I.C., microbroth dilution. The following applies: salts calculated as weight of purpuromycin; 30° C., 20 h. The format is cell-based. As for the experimental part:
as §1

In series [5] the test system is Escherichia coli SKF 12140. Briefly: In vitro activity, M.I.C., microbroth dilution. The format is cell-based. The settings on record: salts calculated as weight of purpuromycin; 37° C., 20 h. As for the experimental part: as §1
The test system of series [6] is Haemophilus influenzae ATCC 19418. The series is described as follows: In vitro activity, M.I.C., microbroth dilution. Format: cell-based. The settings on record: salts calculated as weight of purpuromycin; 37° C., 48 h, 5% CO2. As for the experimental part: as §1
In series [7] the test system is Trichophyton mentagrophytes SKF 17410. Briefly: In vitro activity, M.I.C., microbroth dilution. The following applies: salts calculated as weight of purpuromycin; 30° C., 72 h. The format is cell-based. On the procedure:
as §1

The test system of another series is Strep. pyogenes L49. The series is described as follows: In vitro activity, M.I.C., microbroth dilution. Format: cell-based. The settings on record: salts calculated as weight of purpuromycin; 37° C., 20 h. As for the experimental part: as §1
For series [8], the system named is Staph. epidermidis ATCC 12228. Briefly: In vitro activity, M.I.C., microbroth dilution. Format: cell-based. The following applies: salts calculated as weight of purpuromycin; 37° C., 20 h. On the procedure:
as §1

The next series deals with Staph. haemolyticus L602. Briefly: In vitro activity, M.I.C., microbroth dilution. Format: cell-based. The following applies: salts calculated as weight of purpuromycin; 37° C., 20 h. On the procedure: as §1
Series [9] relates to Neisseria gonorrhoeae L 997. Briefly: In vitro activity, M.I.C., microbroth dilution. Format: cell-based. The settings on record: salts calculated as weight of purpuromycin; 37° C., 48 h, 5% CO2. As for the experimental part: as §1
In series [10] the test system is Bacteroides fragilis ATCC 23745. Briefly: In vitro activity, M.I.C., microbroth dilution. Format: cell-based. The following applies: salts calculated as weight of purpuromycin; 37° C., 48 h, anaerobic hood. On the procedure:
as §1

Series [11] deals with Propionibacterium acnes ATCC 6919. Briefly: In vitro activity, M.I.C., microbroth dilution. The format is cell-based. The settings on record: salts calculated as weight of purpuromycin; 37° C., 48 h, anaerobic hood. On the procedure:
as §1

Another series has as its system Staph. aureus Tour L 165. The series is described as follows: In vitro activity, M.I.C., microbroth dilution. Format: cell-based. The settings on record: salts calculated as weight of purpuromycin; 37° C., 20 h. As for the experimental part:
as §1

Another series relates to Strep. pneumoniae L44. The series is described as follows: In vitro activity, M.I.C., microbroth dilution. The settings on record: salts calculated as weight of purpuromycin; 37° C., 20 h. Format: cell-based. On the procedure:
as §1

For the next series, the system named is Gardnerella vaginalis. Briefly: In vitro activity, M.I.C., agar dilution. The following applies: salts calculated as weight of purpuromycin; ATCC 14018 and 10 clinical isolates, all same M.I.C.; inoculum ca. 10^5 CFU, 48 h. Format: cell-based. As for the experimental part:
**The assay was carried out on strain ATCC 14018 and 10 clinical isolates
Incubation was for 48 h in an anaerobic hood (37° C.); inoculum ca. 10^5 CFU.

Series [12] can be described thus: Solubility and pH of solution. The format is physicochemical.
Series [13] relates to Trichomonas vaginalis TVL. Briefly: In vitro activity, M.I.C., microtiter trays. The following applies: salts calculated as weight of purpuromycin; 48 h, anaerobic hood, 37° C. Format: cell-based. On the procedure: MIC were performed in flat-bottomed microtiter trays, with 0.2 ml per well. The medium was TYM modified basal medium (Merck) plus 10% horse serum (treated to inactivate complement). The inoculum was ca. 10^5 organisms/ml; incubation was for 48 h in an anaerobic hood (37° C.).The microtiter wells were read using an inverted light microscope. The MIC was taken as the lowest concentration at which no live (mobile) protozoa were seen.

Series [14] relates to Candida albicans SKF 2270. The series is described as follows: Activity against Candida strains, two-fold dilution method. Format: cell-based. The following applies: for MIC: Candida albicans, SKF2270, 20 h. As for the experimental part:
(§2) This set of experiments included also one strain each of two other Candida species, Candida tropicalis and Candida kruzei. The M.I.C. were determined by the two-fold dilution method in buffered (0.01 M phosphate buffer, pH 7.4) yeast nitrogen base medium (Difco) supplemented with 1.5 g/liter asparagine in microtiter trays. Inocula were approximately 10^4 colony forming units/ml. Incubation was for 20 h at 30° C. Purpuromycin was dissolved in DMSO and added to the cultures as above.

Series [15] has as its system Candida albicans ATCC 10231. The series is described as above. The format is cell-based. The following applies: for MIC: Candida albicans, ATCC10231, 20 h. As for the experimental part:
as §2

Where [16] appears, read: MIC >128 mcg/ml, 12 strains tested.
[17] abbreviates: comparative tests, antibacterial agents, read-out: M.I.C.
The mark [18] stands for this setting: comparative tests, antibacterial agents.

As to `C[C@@H]1[C@H](O)[C@@H](C)/C=C/C=C/C=C/C=C/C=C/C=C/C=C/[C@H](O[C@@H]2O[C@H](C)[C@@H](O)[C@H](N)[C@@H]2O)C[C@@H]2O[C@](O)(C[C@@H](O)C[C@@H](O)[C@H](O)CC[C@@H](O)C[C@@H](O)CC(=O)O[C@H]1C)C[C@H](O)[C@H]2C(=O)O` [Amphotericin B], the MIC in [1] (Trichomonas vaginalis, 48 h) stood at 64 mg/L (≈ 69.3 µM).

Consider `Clc1ccccc1C(c1ccccc1)(c1ccccc1)n1ccnc1` [Clotrimazole], for which, in series [2] (12 strains tested), the “Number of strains with MIC of 8 mcg/ml” value came to 2 strains and the “Number of strains with MIC of 32 mcg/ml” value is 2 strains. Further, the “Number of strains with MIC of 16 mcg/ml” value in [2] (MIC 16 mcg/ml, 12 strains tested) stood at 1 strains. Moreover, the “Number of strains with MIC of >128 mcg/ml” value (“Number … of >128 mcg/ml” below) in [2] (setting [16]) turned out to be 2 strains. Moreover, in [1] (Trichomonas vaginalis, 48 h), the MIC amounted to 64 mg/L (≈ 186 µM).

For `CC(=O)N1CCN(c2ccc(OCC3COC(Cn4ccnc4)(c4ccc(Cl)cc4Cl)O3)cc2)CC1` (stereo not drawn) [Ketoconazole], the MIC in [1] (Trichomonas vaginalis, 48 hours at 37° C., read-out: MIC) is more than 128 mg/L.

Consider `Clc1ccc(COC(Cn2ccnc2)c2ccc(Cl)cc2Cl)c(Cl)c1` (stereo not drawn) [Miconazole], for which the MIC was more than 128 mg/L in series [2] (Gardnerella vaginalis, read-out: MIC on resistant strains) and 32 mg/L (≈ 76.9 µM) in series [1] (Trichomonas vaginalis, 48 h). Also, the “Number of strains with MIC of 4 mcg/ml” value in [2] (MIC 4 mcg/ml, 12 strains tested) was found to be 1 strains. Also, the “Number of strains with MIC of 8 mcg/ml” value in series [2] (12 strains tested) amounted to 7 strains. The “Number of strains with MIC of 32 mcg/ml” value in series [2] (12 strains tested) was 2 strains. Besides, in series [2] (setting [16]), the “Number … of >128 mcg/ml” value is listed as 2 strains.

`C[C@@H]1[C@H](O)[C@@H](C)/C=C/C=C/CC/C=C/C=C/C=C/C=C/C(O[C@H]2O[C@H](C)[C@@H](O)[C@H](N)[C@@H]2O)CC2O[C@](O)(CC(O)C(O)CCC(O)CC(O)CC(O)CC(=O)O[C@H]1C)CC(O)C2C(=O)O` (stereo partly drawn) [Nystatin]: the “Number … of >128 mcg/ml” value in [2] turned out to be 12 strains. Further, the “MIC on resistant strains” value in series [2] (strains resistant to the named drug) was more than 128 micrograms/ml. Further, the MIC in series [1] (48 hours at 37° C.) was more than 128 mg/L.

In general, solubility refers to the dissolved amount per volume that the medium holds. Turning to `COC(=O)c1cc2cc3c(c(O)c2c(=O)o1)OC1(Cc2c(O)c4c(c(O)c2O1)C(=O)C(OC)=CC4=O)CC3O` (stereo not drawn) [Purpuromycin salt with TRIS (1:1.5), Salt of purpuromycin with tris-(hydroxymethyl) aminomethane], the M.I.C. in series [3] is 0.06 mg/L; in series [4], 1 mg/L; in series [5], 16 mg/L; in [6], 0.06 mg/L; in series [7], 1 mg/L; with Strep. pyogenes L49 it was 0.06 mg/L. Moreover, the M.I.C. in [8] was 0.06 mg/L; in the series on Staph. haemolyticus L602, 0.06 mg/L; in [9], 0.06 mg/L; in [10], 0.13 mg/L; in series [11] it was 0.06 mg/L; with Staph. aureus Tour L 165 it was 0.06 mg/L. Besides, the M.I.C. in the series with Strep. pneumoniae L44 is 0.13 mg/L; in the series on Gardnerella vaginalis, 16 mg/L; in [13], 4 mg/L. Moreover, the “pH value of the solution” value in series [12] (solution at 4.5 mg/ml in distilled water) is recorded as 8.8. Further, in series [12] (water, room temperature, calculated as purpuromycin, read-out: solubility in distilled water), the solubility is 4.5 mg/mL.

With `CC1(C)S[C@@H]2[C@H](NC(=O)[C@H](N)c3ccccc3)C(=O)N2[C@H]1C(=O)O` [ampicillin], the MIC in series [14] (setting [17]) and in series [15] (setting [17]) was more than 128 mg/L in each case.

For the compound `CC1=C(C(=O)O)N2C(=O)[C@@H](NC(=O)[C@H](N)c3ccccc3)[C@H]2SC1` [cefalexin], the MIC in [14] (setting [17]) and in [15] (setting [17]) was more than 128 mg/L each time.

`CO[C@@]1(NC(=O)Cc2cccs2)C(=O)N2C(C(=O)O)=C(COC(N)=O)CS[C@@H]21` [cefoxitin]: the MIC in [14] (setting [17]) and in [15] (setting [17]) was more than 128 mg/L in each case.

On to `O=C(Cc1cccs1)N[C@@H]1C(=O)N2C(C(=O)[O-])=C(C[n+]3ccccc3)CS[C@H]12` [cephaloridine], for which the MIC in series [14] (setting [17]) and in [15] (setting [17]) was more than 128 mg/L each time.

Consider `O=C(N[C@H](CO)[C@H](O)c1ccc([N+](=O)[O-])cc1)C(Cl)Cl` [chloramphenicol], for which the MIC in series [14] and in series [15] was more than 128 mg/L in each case.

`CC[C@H]1OC(=O)[C@H](C)[C@@H](O[C@H]2C[C@@](C)(OC)[C@@H](O)[C@H](C)O2)[C@H](C)[C@@H](O[C@@H]2O[C@H](C)C[C@H](N(C)C)[C@H]2O)[C@](C)(O)C[C@@H](C)C(=O)[C@H](C)[C@@H](O)[C@]1(C)O` [erythromycin]: the MIC in [14] and in [15] was more than 128 mg/L throughout.

As to `CC1(C)S[C@@H]2[C@H](NC(=O)Cc3ccccc3)C(=O)N2[C@H]1C(=O)O` [penicillin G], the MIC in series [14] and in series [15] was more than 128 mg/L each time.

With `CN[C@@H]1[C@H](O)[C@H](NC)[C@H]2O[C@@]3(O)C(=O)C[C@@H](C)O[C@H]3O[C@@H]2[C@H]1O` [spectinomycin], the MIC in series [14] (setting [17]) and in [15] (setting [17]) was more than 128 mg/L throughout.

In the case of gentamicin, the M.I.C. result in series [14] (setting [18]) and in series [15] (setting [18]) was “higher than 128 microgram/ml” in each case.
